Data as given in ChEMBL document CHEMBL4680202, “Development, synthesis and biological investigation of a novel class of potent PC-PLC inhibitors” (Eur J Med Chem, 2020).
pIC50, pKi: −log10 of the molar value.

How the values were obtained:
[1] = Inhibition of Bacillus cereus PC-PLC using phosphatidylcholine as substrate measured after 1 hr by horseradish peroxidase/alkaline phosphatase/choline oxidase-coupled amplex red reagent based fluorescence assay
[2] = test system: MDA-MB-231; test: Cytotoxicity against human MDA-MB-231 cells assessed as reduction in cell proliferation measured at 50 ug/ml measured after 48 to 72 hrs by trypan blue exclusion assay relative to control; type: functional; parameters: scale not given: the % may be the effect or the level left; conditions: dose 50 µg/ml; time 48-72 hrs
[3] = test system: Bacillus cereus; test: Inhibition of Bacillus cereus PC-PLC assessed as residual activity at 10 uM using phosphatidylcholine as substrate measured after 1 hr by horseradish peroxidase/alkaline phosphatase/choline oxidase-coupled amplex red reagent based fluorescence assay relative to control

pIC50 [1]	pKi [1]	Activity [3]	Structure (SMILES)	Activity [2]
5.09	5.19	40.3%	S=C([S-])OC1CC2CC1C1CCCC21.[K+] (centres undefined)	60%
5.97	–	0%	Fc1ccccc1CNc1ccc(N2CCOCC2)cc1	–
5.44	–	10.7%	O=C(O)c1cc(NCc2cccc(Cl)c2)ccc1N1CCOCC1	–
–	–	56.7%	COC(=O)c1cc(NCc2ccccc2Br)ccc1N1CCOCC1	–
